The target of test [1] is T1, Bifunctional epoxide hydrolase 2 (Homo sapiens, UniProt P34913).
T1 sequence (P34913 whole entry): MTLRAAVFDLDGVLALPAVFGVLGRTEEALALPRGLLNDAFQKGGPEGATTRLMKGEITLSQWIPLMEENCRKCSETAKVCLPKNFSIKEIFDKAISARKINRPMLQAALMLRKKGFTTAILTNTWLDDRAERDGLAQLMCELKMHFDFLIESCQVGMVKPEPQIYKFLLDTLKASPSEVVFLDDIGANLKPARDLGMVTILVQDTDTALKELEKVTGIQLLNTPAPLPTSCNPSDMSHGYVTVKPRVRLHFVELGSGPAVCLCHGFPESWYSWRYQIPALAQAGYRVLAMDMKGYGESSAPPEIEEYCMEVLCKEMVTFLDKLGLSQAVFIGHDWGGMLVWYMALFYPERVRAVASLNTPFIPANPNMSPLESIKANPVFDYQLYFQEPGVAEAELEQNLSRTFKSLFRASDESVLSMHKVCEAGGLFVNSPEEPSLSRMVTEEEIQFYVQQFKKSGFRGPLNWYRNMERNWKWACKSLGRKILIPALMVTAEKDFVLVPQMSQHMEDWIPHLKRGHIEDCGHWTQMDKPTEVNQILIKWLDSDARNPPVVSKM
Description: Inhibition of recombinant human sEH expressed in Escherichia coli assessed as inhibition of substrate PHOME hydrolysis to 6-methoxy-2-naphthaldehyde after 5 mins by fluorescence assay

The target in test [2] is T2, Bifunctional epoxide hydrolase 2 (Homo sapiens) (UniProt P34913).
T2 sequence (whole entry): T1 sequence (P34913 whole entry)
In words: Inhibition of recombinant human sEH expressed in Escherichia coli assessed as inhibition of substrate PHOME hydrolysis to 6-methoxy-2-naphthaldehyde at 10 ug/ml after 5 mins by fluorescence assay.

For the next test, the species on record is Mus musculus. In words: animal or person. To be noted: Kunming, Ear, po, read-out: INH.

Description for Mus musculus: Antiinflammatory activity in Kunming mouse assessed as inhibition of xylene-induced ear edema at 150 mg/kg, po administered 45 mins prior to xylene challenge measured 15 mins post challenge

In turn, `Cc1ccc(C(=O)Oc2cccc3oc(=O)[nH]c23)cc1` gave an IC50 in test [1] of 1.07 µM. The inhibition in test [2] was found to be 98.3%.

With `O=C(Oc1cccc2oc(=O)[nH]c12)c1cccc(Cl)c1`, the inhibition in test [2] amounted to 25.3%.

Consider `CC(NC(=O)OC(C)(C)C)C(=O)Oc1cccc2oc(=O)[nH]c12` (stereo not drawn), for which the inhibition in vivo at 150 mg/kg in the test filed under Mus musculus is 40.7%. The IC50 in test [1] is 16.4 µM. Further, the inhibition in test [2] came to 95.7%.

The molecule `O=C(Oc1cccc2oc(=O)[nH]c12)c1cccc([N+](=O)[O-])c1` showed a concentration for half-maximal inhibition (IC50) in test [1] of 3 µM. Moreover, in test [2], the inhibition was 92.9%.

In the case of `O=C(Oc1cccc2oc(=O)[nH]c12)c1ccc(Cl)cc1`, the inhibition in test [2] stood at 27.8%.

Consider `O=c1[nH]c2c(OS(=O)(=O)c3ccccc3Cl)cccc2o1`, for which the inhibition in test [2] worked out at 15.2%.

Take `CC(C)(C)OC(=O)NC(Cc1ccccc1)C(=O)Oc1cccc2oc(=O)[nH]c12` (stereo not drawn): in the test listed under Mus musculus, the inhibition in vivo at 150 mg/kg came out at 64%. In test [1], this molecule showed an IC50 of 2.67 µM. Further, the inhibition in test [2] is 90.8%.

Take `O=c1[nH]c2c(OS(=O)(=O)c3cccc(Cl)c3)cccc2o1`: the inhibition in test [2] worked out at 24.5%.

As to `O=C(Oc1cccc2oc(=O)[nH]c12)c1ccc([N+](=O)[O-])cc1`, in test [2], the inhibition was 28.1%.

As to `O=c1[nH]c2c(OS(=O)(=O)c3ccc(Cl)cc3)cccc2o1`, in test [2], the inhibition was found to be 13.6%.

As for `O=c1[nH]c2c(OS(=O)(=O)c3ccc([N+](=O)[O-])cc3)cccc2o1`, in test [2], the inhibition is 28.8%.

As for `CC(C)(C)OC(=O)N1CCCC1C(=O)Oc1cccc2oc(=O)[nH]c12` (stereo not drawn), the inhibition in vivo at 150 mg/kg in the test listed under Mus musculus is 51.5%. In test [1], the IC50 turned out to be 1.72 µM. Moreover, the inhibition in test [2] was determined as 101%.

With `CC(C)C(NC(=O)OC(C)(C)C)C(=O)Oc1cccc2oc(=O)[nH]c12` (stereo not drawn), the inhibition in vivo at 150 mg/kg in the test listed under Mus musculus turned out to be 46.5%. Further, in test [2], the inhibition is 48%.

Consider `O=c1[nH]c2c(OS(=O)(=O)c3ccccc3)cccc2o1`, for which the inhibition in test [2] is 36%.

In the case of `Cc1ccccc1C(=O)Oc1cccc2oc(=O)[nH]c12`, in test [2], the inhibition stood at 26.2%.

Turning to `CC(C)(C)OC(=O)NCC(=O)Oc1cccc2oc(=O)[nH]c12`, in the test listed under Mus musculus, the inhibition in vivo at 150 mg/kg is 54.5%. Moreover, half-maximal inhibition in test [1] (IC50) required 17.2 µM. Besides, the inhibition in test [2] was 95.5%.

For `O=C(Oc1cccc2oc(=O)[nH]c12)c1ccccc1Cl`, in test [2], the inhibition stood at 30.8%.

Turning to `Cc1ccc(S(=O)(=O)Oc2cccc3oc(=O)[nH]c23)cc1`, the inhibition in test [2] was determined as 39.9%.

For `CC(C)(C)OC(=O)NC(Cc1c[nH]c2ccccc12)C(=O)Oc1cccc2oc(=O)[nH]c12` (stereo not drawn), in the test filed under Mus musculus, the inhibition in vivo at 150 mg/kg stood at 61%. Further, the inhibition in test [2] was 79.6%.

Take `O=c1[nH]c2c(OS(=O)(=O)c3cccc([N+](=O)[O-])c3)cccc2o1`: in test [2], the inhibition was 31.6%.

For `O=c1[nH]c2c(OS(=O)(=O)c3ccccc3[N+](=O)[O-])cccc2o1`, the inhibition in test [2] was 36.1%.

Regarding `CSCCC(NC(=O)OC(C)(C)C)C(=O)Oc1cccc2oc(=O)[nH]c12` (stereo not drawn), the inhibition in vivo at 150 mg/kg in the test filed under Mus musculus stood at 24.8%. In test [1], this molecule gave a half-inhibitory concentration (IC50) of 3.02 µM. Further, the inhibition in test [2] was determined as 99.6%.

Turning to `Cc1ccccc1S(=O)(=O)Oc1cccc2oc(=O)[nH]c12`, the inhibition in test [2] is 28%.

As to `O=c1[nH]c2c(O[C@@H]3O[C@H](CO)[C@H](O)[C@H](O)[C@H]3O)cccc2o1`, in test [2], the inhibition came out at 61%.

In the case of `O=c1[nH]c2c(O[C@@H]3O[C@H](CO)[C@@H](O)[C@H](O)[C@H]3O)cccc2o1`, in test [2], the inhibition was 45.5%.

In the case of `Cc1cccc(S(=O)(=O)Oc2cccc3oc(=O)[nH]c23)c1`, in test [2], the inhibition turned out to be 30.9%.

Consider `O=C(Oc1cccc2oc(=O)[nH]c12)c1ccccc1[N+](=O)[O-]`, for which the inhibition in test [2] came to 29.2%.

`O=C(Oc1cccc2oc(=O)[nH]c12)c1ccccc1`: in test [2], the inhibition stood at 28%.

As to `Cc1cccc(C(=O)Oc2cccc3oc(=O)[nH]c23)c1`, the inhibition in test [2] was determined as 24.4%.

As usually defined, the IC50 is the point on the concentration scale where inhibition reaches its midpoint. Lower therefore signals inhibition by little substance. The inhibition is the change of the read-out against control, counted positive when it falls.

The record behind these values is ChEMBL document CHEMBL2346634, “Synthesis and biological activity of 4-substituted benzoxazolone derivatives as a new class of sEH inhibitors with high anti-inflammatory activity in vivo” (Bioorg Med Chem Lett, 2013).
